Assay results as given in article PMC4082664 (Alcoholism, clinical and experimental research, 2011).
Read-outs that look alike come from different tables or passages of the source.

Experiments:
CYP3A4 [1] = biological target: T1, CYP3A4 (Homo sapiens, UniProt P08684); assay: Spectral binding; settings: for Type of spectral binding with CYP3A4: no ethanol; for δAmax (maximum spectral change): 0.5 µM CYP3A4, 25°C, pH 7.4; for Type of spectral binding with CYP3A4 at low concentrations: low concentrations (<0.5 µM), data not shown
CYP3A4 [2] = biological target: T1, CYP3A4; settings: ref Kumar et al., 2010; cited from earlier work

T1 sequence (P08684 whole entry): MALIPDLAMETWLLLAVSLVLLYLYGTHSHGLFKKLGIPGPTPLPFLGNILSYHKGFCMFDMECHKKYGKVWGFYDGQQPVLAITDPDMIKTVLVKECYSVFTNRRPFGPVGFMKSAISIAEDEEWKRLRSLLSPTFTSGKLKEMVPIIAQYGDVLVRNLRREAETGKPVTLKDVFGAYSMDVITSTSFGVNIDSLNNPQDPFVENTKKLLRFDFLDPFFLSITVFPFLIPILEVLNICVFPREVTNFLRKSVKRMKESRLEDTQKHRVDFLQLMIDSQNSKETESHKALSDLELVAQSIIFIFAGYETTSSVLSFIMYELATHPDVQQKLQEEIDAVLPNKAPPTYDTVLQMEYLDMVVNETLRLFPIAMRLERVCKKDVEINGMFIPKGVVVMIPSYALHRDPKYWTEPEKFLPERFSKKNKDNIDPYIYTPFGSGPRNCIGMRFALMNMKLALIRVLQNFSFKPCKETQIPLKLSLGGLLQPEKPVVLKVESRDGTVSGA

SMILES | Type of spectral binding with CYP3A4 (CYP3A4 [1]) | δAmax (maximum spectral change) (CYP3A4 [1]; 20 mM ethanol) | δAmax (maximum spectral change) (CYP3A4 [1]; No ethanol) | Type of spectral binding with CYP3A4 at low concentrations (CYP3A4 [1]) | Type of spectral binding with CYP3A4 (CYP3A4 [2])
CC(C)CN(C[C@@H](O)[C@H](Cc1ccccc1)NC(=O)O[C@H]1CCOC1)S(=O)(=O)c1ccc(N)cc1 [Amprenavir] | did not show detectable spectral binding | – | – | – | –
COC(=O)N[C@H](C(=O)N[C@@H](Cc1ccccc1)[C@@H](O)CN(Cc1ccc(-c2ccccn2)cc1)NC(=O)[C@@H](NC(=O)OC)C(C)(C)C)C(C)(C)C [Atazanavir] | type I | 0.012 ± 0.0002 | 0.013 ± 0.0003 | weak type II | –
CC(C)(C)NC(=O)[C@@H]1C[C@@H]2CCCC[C@@H]2CN1C[C@@H](O)[C@H](Cc1ccccc1)NC(=O)[C@H](CC(N)=O)NC(=O)c1ccc2ccccc2n1 [Saquinavir] | type I | 0.006 ± 0.0003 | 0.011 ± 0.0001 | – | –
CCC[C@@]1(CCc2ccccc2)CC(O)=C([C@H](CC)c2cccc(NS(=O)(=O)c3ccc(C(F)(F)F)cn3)c2)C(=O)O1 [Tipranavir] | type I | 0.012 ± 0.0003 | 0.015 ± 0.0003 | weak type II | –
CCO [ethanol] | – | – | – | – | type I
Cc1c(O)cccc1C(=O)N[C@@H](CSc1ccccc1)[C@H](O)CN1C[C@H]2CCCC[C@H]2C[C@H]1C(=O)NC(C)(C)C [nelfinavir] | – | – | – | – | high-affinity type I
